The values that follow come from patent publication US11590107B2, “Methods for treating neurological disorders with α1A-AR partial agonists” (CURASEN THERAPEUTICS, INC., priority 2019, dated 2023).

Where two headings read alike, the source gives them in different places.

Series [1] relates to patients with central autonomic failure. The settings on record: Ramirez et al. 2014, Shibao et al. 2007; cited from earlier work.
The target in series [2] is T1, α1A-AR receptor (Homo sapiens, UniProt P35348).
T1 sequence (P35348 1-466): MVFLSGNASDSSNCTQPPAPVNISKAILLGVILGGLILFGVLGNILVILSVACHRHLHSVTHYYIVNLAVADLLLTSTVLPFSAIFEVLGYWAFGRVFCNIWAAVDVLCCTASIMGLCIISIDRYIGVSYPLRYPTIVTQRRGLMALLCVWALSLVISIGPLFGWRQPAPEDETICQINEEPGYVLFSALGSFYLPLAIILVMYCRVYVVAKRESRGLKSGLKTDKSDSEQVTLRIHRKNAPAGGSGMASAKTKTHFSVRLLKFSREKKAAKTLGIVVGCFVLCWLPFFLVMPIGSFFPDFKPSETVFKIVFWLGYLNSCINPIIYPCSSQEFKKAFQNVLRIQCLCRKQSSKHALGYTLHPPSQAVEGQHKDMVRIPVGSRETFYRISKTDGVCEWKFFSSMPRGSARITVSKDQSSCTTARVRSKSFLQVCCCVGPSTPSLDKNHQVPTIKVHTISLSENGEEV
The settings on record: InsPs accumulation assay; Blue et al., Table 1; cited from earlier work.

Series [3] concerns the target T1, α1A-AR receptor. The conditions noted are these: FLIPR assay; Blue et al., Table 1; cited from earlier work.
In series [4] the test system is patients with symptomatic neurogenic orthostatic hypotension. The series is described as follows: Treatment of patients having nOH (Example 1). It is filed as in vivo, human. The settings on record: 5 mg oral tablets twice daily, follow-up after one week. On the procedure:
Patients between the age of 40 and 80 years old that have been diagnosed with symptomatic orthostatic hypotension due to pure autonomic failure, multiple system atrophy or Parkinson's disease (i.e., PD plus symptoms) present for treatment. At the time of presentation, autonomic function testing is conducted to confirm the diagnosis of autonomic dysfunction including sinus arrhythmia and the Valsalva maneuver.
The patients are given 5 mg dabuzalgron oral tablets and are instructed to take one tablet shortly after waking up in the morning and a second tablet 4-6 hours later each day.
Some patients return for a follow-up visit after one week of treatment. […] In the follow-up visit supine systolic blood pressure (SSBP) may be determined.

For the molecule `CNCC[C@@H](Oc1ccccc1C)c1ccccc1` [Atomoxetine], in series [1], the “effect on blood pressure” value is given as “increase blood pressure”.
As to `Cc1c(OCC2=NCCN2)ccc(Cl)c1NS(C)(=O)=O.Cl` [RO 115-1240 (dabuzalgron) HCl salt, N-[6-chloro-3-(4,5-dihydro-1H-imidazol-2-ylmethoxy)-2-methylphenyl] methanesulfonamide hydrochloride], the “intrinsic activity as compared to noradrenaline” value is given as 0.27 in series [2] and 0.51 in series [3].
In the case of `Cc1c(OCC2=NCCN2)ccc(Cl)c1NS(C)(=O)=O` [RO 115-1240 (dabuzalgron) free base, N-[6-chloro-3-(4,5-dihydro-1H-imidazol-2-ylmethoxy)-2-methylphenyl] methanesulfonamide], the “intrinsic activity as compared to noradrenaline” value in series [2] is on record as 0.31.
For `Cc1c(OCC2=NCCN2)ccc(Cl)c1NS(C)(=O)=O` [dabulzagron, N-[6-chloro-3-(4,5-dihydro-1H-imidazol-2-ylmethoxy)-2-methylphenyl] methanesulfonamide], in series [4], the “rise in SSBP compared with patients taking midodrine or droxidopa for nOH” value is on record as “less that that observed in patients taking midodrine or droxidopa”, the “rise in supine systolic blood pressure (SSBP)” value is recorded as “not experience a substantial rise in SSBP” and the “symptoms of nOH as compared to the first visit before treatment” value is on record as “improve”.
